Laboratory results as given in patent US20150126467A1, “USE OF ALGINATE OLIGOMERS TO ENHANCE THE EFFECTS OF ANTIFUNGAL AGENTS” (AlgiIPharma AS, priority 2011, published 2015).
In brackets after ≈: the same amount, converted by molar mass. Read-outs that look alike come from different tables or passages of the source.

Legend:
[1] = tested on: Candida albicans; assay: Robotic MIC assay with asthma/COPD medicaments (Example 5); assay type: cell-based; conditions: for effect on growth of C. albicans: at the given concentrations, data not shown; for influence on the MIC values of nystatin or amphotericin B in combination with OligoG CF5/20: ipratropium bromide and salbutamol at 0.01 mM and 1 mM, budesonide at 0.01 mM, formoterol at 0.5 mM
Protocol: A robotic MIC Assay was performed as follows. OligoG CF-5/20 were dissolved in medium (Mueller-Hinton broth or M19 broth depending on experiment) to 1.25 times of the desired assay concentrations (2, 6 and 10%). The antifungal agents under test were dissolved in medium without OligoG CF-5/20 and in medium with OligoG CF-5/20 at a concentration of 1.25 times the highest desired assay concentrations. For experiments where the effect of adding different concentrations of Na^+ was investigated, NaCl was dissolved in medium to the desired concentrations (10, 30 and 50 mM).
Two-fold serial dilutions of antifungal agents were made in medium with different concentrations of OligoG CF-5/20, and the solutions were placed in four parallel wells in Nunc 384-well micro plates (30 μl per well in Nunc 242757 microplates). A group of 8 wells with no addition of antifungal agents for each OligoG CF-5/20 concentration was included on each microplate as growth reference. To each well in the 384-well assay plates was added 7.5 μl of medium inoculated with a frozen stock culture of Candida albicans (strain CCUG 39343).
The micro plates were placed in plastic bags and incubated without shaking at 34° C. The optical density at 600 nm in the microwells was measured after approximately 13, 18, 24 and 34 hours of incubation, and the relative growth yield in each well was calculated based on the growth in the reference groups.
The robotic assay described in Example 1 was employed in this Example. […] The concentration utilized for the different components were based on information from Manocha et al. (2006).
In this assay only Mueller-Hinton broth was used since this is the medium specified for standardized MIC assays (Jorgensen et al., 1999).

[2] = tested on: Aspergillus flavus CCUG 28296; assay: Robotic MIC assay, Aspergillus (Example 4); assay type: cell-based; conditions: Aspergillus flavus, CCUG23451 / CCUG28296, 48 h, Mueller-Hinton broth, read-out: Minimum Inhibitory Concentration (MIC)
Protocol: (§1) Aspergillus sp. was grown at 30° C. for 96 h on YM-agar. Spores and aerial mycelium was cut out from the agar, suspended in 1 ml YM-broth and dispersed with glass beads (1 mm) in a mini bead beater for 2 min. Glycerol was added to the suspension to 10% and frozen at −80° C.
(§2) Each batch of frozen stock culture was then characterized in separate growth experiments using Mueller-Hinton broth to determine the minimum amount of inoculum giving satisfactory growth after 48 h under the conditions relevant for the MIC assay. This inoculation procedure is used in order to reduce day to day variation in bioassays.
(§3) Robotic minimum inhibitory concentration (MIC) assay was performed as follows. OligoG CF-5/20 was dissolved in medium (Mueller-Hinton broth) to 1.25 times of the desired assay concentrations (2, 6 and 10%). […].
(§4) Two-fold serial dilutions of antifungal agents were made in medium with different concentrations of OligoG CF-5/20, and the solutions were placed in four parallel wells in Nunc 384-well micro plates (30 μl per well in Nunc 242757 microplates). A group of 8 wells with no addition of antifungal agents for each OligoG CF-5/20 concentration was included on each micro plate as growth reference. Each well in the 384-well assay plates was added 7.5 μl of the MH medium inoculated with frozen stock culture of the relevant strains.
(§5) The microplates were placed in plastic bags and incubated without shaking at 34° C. The optical density at 600 nm in the microwells was measured after approximately 24 and 48 hours of incubation. […]

[3] = tested on: Aspergillus fumigatus CCUG 17460; assay: Robotic MIC assay, Aspergillus (Example 4); assay type: cell-based; conditions: Aspergillus fumigatus, CCUG17460, 48 h, Mueller-Hinton broth, read-out: Minimum Inhibitory Concentration (MIC)
Protocol: as §1, §2, §3, §4, §5

[4] = tested on: Aspergillus niger CCUG 18919; assay: Robotic MIC assay, Aspergillus (Example 4); assay type: cell-based; conditions: Aspergillus niger, CCUG18919, 48 h, Mueller-Hinton broth, read-out: Minimum Inhibitory Concentration (MIC)
Protocol: as §1, §2, §3, §4, §5

[5] = tested on: various Aspergillus species; assay: Robotic MIC assay, summary over species (Example 4); assay type: cell-based; conditions: Aspergillus species tested
Protocol: as §1, §2, §3, §4, §5

[6] = cited from earlier work

Compound: CC(C)[N+]1(C)[C@@H]2CC[C@H]1C[C@@H](OC(=O)C(CO)c1ccccc1)C2.O.[Br-] (stereo partly shown) [Ipratropium bromide, ipratropium bromide monohydrate]
- effect on growth of C. albicans [1]: did not affect growth
- influence on the MIC values of nystatin or amphotericin B in combination with OligoG CF5/20 [1]: do not significantly influence

Compound: C[C@@H](c1ncncc1F)[C@](O)(Cn1cncn1)c1ccc(F)cc1F [Voriconazole, voriconazole]
- MIC ([2]; A. flavus CCUG 23451, 0% OligoG): 0.0625 µg/mL (≈ 0.179 µM)
- MIC ([2]; A. flavus CCUG 23451, 2% OligoG): 0.0625 µg/mL (≈ 0.179 µM)
- MIC ([2]; A. flavus CCUG 23451, 6% OligoG): < 0.0312 µg/mL
- MIC ([2]; A. flavus CCUG 23451, 10% OligoG): < 0.0312 µg/mL
- MIC ([3]; A. fumigatus CCUG 17460, 0% OligoG): 0.125 µg/mL (≈ 0.358 µM)
- MIC ([3]; A. fumigatus CCUG 17460, 2% OligoG): 0.125 µg/mL (≈ 0.358 µM)
- MIC ([3]; A. fumigatus CCUG 17460, 6% OligoG): 0.0625 µg/mL (≈ 0.179 µM)
- MIC ([3]; A. fumigatus CCUG 17460, 10% OligoG): 0.0312 µg/mL (≈ 0.0895 µM)
- MIC ([4]; A. niger CCUG 18919, 0% OligoG): 0.25 µg/mL (≈ 0.716 µM)
- MIC ([4]; A. niger CCUG 18919, 2% OligoG): 0.0625 µg/mL (≈ 0.179 µM)
- MIC ([4]; A. niger CCUG 18919, 6% OligoG): < 0.0312 µg/mL
- MIC ([4]; A. niger CCUG 18919, 10% OligoG): < 0.0312 µg/mL
- effect of addition of OligoG CF-5/20 on MIC values [5]: reduction in MIC values

Compound: CCCC1O[C@@H]2C[C@H]3[C@@H]4CCC5=CC(=O)C=C[C@]5(C)[C@H]4[C@@H](O)C[C@]3(C)[C@]2(C(=O)CO)O1 (stereo partly shown) [budesonide]
- solubility in water [6]: limited solubility in water

Compound: CC(C)(C)NCC(O)c1ccc(O)c(CO)c1 (stereo not shown) [salbutamol]
- effect on growth of C. albicans [1]: did not affect growth
- influence on the MIC values of nystatin or amphotericin B in combination with OligoG CF5/20 [1]: do not significantly influence
- solubility in water [6]: soluble in water
